Measured values reported in patent US7772241B2, “Variolin derivatives and their use as antitumor agents” (Pharma Mar S.A., priority 2001, dated 2010).
Where two headings read alike, the source gives them in different places.

What was measured:
PANC-1 = assay: Inhibition of cells growth by colorimetric (SRB) assay, PANC-1; conditions: for GI50 / CC50: Homo sapiens, PANC-1, 48 h
Summary of the method: (§1)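 Human tumour cells seeded at 5×10^3/well in RPMI 1640 10% FBS, attached 18 h, then exposed 48 h to samples at 10 to 10^−8 μg/ml in DMSO/EtOH/PBS (0.5:0.5:99). Growth read by SRB staining after TCA fixation, OD 490 nm, triplicate wells; GI, TGI and LC derived.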

IGROV-ET = assay: Inhibition of cells growth by colorimetric (SRB) assay, IGROV-ET; conditions: for GI50 / CC50: Homo sapiens, 48 h
Summary of the method: as §1

IGROV-1 = assay: Inhibition of cells growth by colorimetric (SRB) assay, IGROV-1; conditions: for GI50 / CC50: Homo sapiens, IGROV-1, 48 h
Summary of the method: as §1

A-549 = assay: Inhibition of cells growth by colorimetric (SRB) assay, A-549; conditions: for GI50 / CC50: Homo sapiens, A549, 48 h
Summary of the method: as §1

LNCaP = assay: Inhibition of cells growth by colorimetric (SRB) assay, LNCaP; conditions: for GI50 / CC50: Homo sapiens, LNCaP, 48 h
Summary of the method: as §1

K-562 = assay: Inhibition of cells growth by colorimetric (SRB) assay, K-562; conditions: for GI50 / CC50: Homo sapiens, K562, 48 h
Summary of the method: as §1

HeLa = assay: Inhibition of cells growth by colorimetric (SRB) assay, HeLa
Summary of the method: as §1

[1] = Inhibition of cells growth by colorimetric (SRB) assay, HMEC1; conditions: human, HMEC1 cells, LC50 H-MEC-1, SRB assay, 48 hours exposure
HMEC1 = assay: as above
LoVo-Dox = assay: Inhibition of cells growth by colorimetric (SRB) assay, LoVo-Dox; conditions: for GI50 / CC50: Homo sapiens, 48 h
Summary of the method: as §1

HeLa-APL = assay: Inhibition of cells growth by colorimetric (SRB) assay, HeLa-APL
Summary of the method: as §1

DU-145 = assay: Inhibition of cells growth by colorimetric (SRB) assay, DU-145; conditions: for GI50 / CC50: Homo sapiens, DU-145, 48 h
Summary of the method: as §1

LoVo = assay: Inhibition of cells growth by colorimetric (SRB) assay, LoVo; conditions: for GI50 / CC50: Homo sapiens, LoVo, 48 h
Summary of the method: as §1

SK-OV-3 = assay: Inhibition of cells growth by colorimetric (SRB) assay, SK-OV-3
Summary of the method: as §1

HT-29 = assay: Inhibition of cells growth by colorimetric (SRB) assay, HT-29; conditions: for GI50 / CC50: Homo sapiens, HT-29, 48 h
Summary of the method: as §1

For CSc1nccc(-c2c3cccnc3n3c(N(C(C)=O)C(C)=O)nccc23)n1 [Compound 26], which GI50 (PANC-1; read-out: GI50 PANC-1, SRB assay, 48 hours exposure) is on record?
Its GI50 is 0.933 µM.

And the CC50 (PANC-1; read-out: LC50 PANC-1, SRB assay, 48 hours exposure)?
Its CC50 is 21.3 µM.

And the GI50 (PANC-1; read-out: PANC-1 GI50, SRB assay, 48 hours exposure)?
Its GI50 is 4.38 µM.

And the CC50 (PANC-1; read-out: PANC-1 LC50, SRB assay, 48 hours exposure)?
The CC50 was 17.6 µM.

What about the “PANC-1 TGI” value (PANC-1; SRB assay, 48 hours exposure) of the same compound?
The value was 8.79E−06.

And the “TGI PANC-1” value (PANC-1; SRB assay, 48 hours exposure)?
Its value is 4.05E−06.

And the GI50 (IGROV-ET; read-out: GI50 IGROV-ET, SRB assay, 48 hours exposure)?
The GI50 was 1.7 µM.

What about the GI50 (IGROV-ET; read-out: IGROV-ET GI50, SRB assay, 48 hours exposure) of the same compound?
The GI50 was 0.917 µM.

And the CC50 (IGROV-ET; read-out: IGROV-ET LC50, SRB assay, 48 hours exposure)?
The CC50 was 11.4 µM.

And the CC50 (IGROV-ET; read-out: LC50 IGROV-ET, SRB assay, 48 hours exposure)?
Its CC50 is 25.5 µM.

And the “IGROV-ET TGI” value (IGROV-ET; SRB assay, 48 hours exposure)?
The value was 1.83E−06.

And the “TGI IGROV-ET” value (IGROV-ET; SRB assay, 48 hours exposure)?
The value was 7.50E−06.

What about the GI50 (IGROV-1; read-out: GI50 IGROV, SRB assay, 48 hours exposure) of the same compound?
Its GI50 is 0.22 µM.

What about the GI50 (IGROV-1; read-out: IGROV GI50, SRB assay, 48 hours exposure) of the same compound?
The GI50 was 0.721 µM.

What about the CC50 (IGROV-1; read-out: IGROV LC50, SRB assay, 48 hours exposure) of the same compound?
Its CC50 is 9.25 µM.

What about the CC50 (IGROV-1; read-out: LC50 IGROV, SRB assay, 48 hours exposure) of the same compound?
Its CC50 is 9.17 µM.

What about the “IGROV TGI” value (IGROV-1; SRB assay, 48 hours exposure) of the same compound?
Its value is 1.58E−07.

What about the “TGI IGROV” value (IGROV-1; SRB assay, 48 hours exposure) of the same compound?
The value was 2.73E−06.

What about the GI50 (A-549; read-out: A-549 GI50, SRB assay, 48 hours exposure) of the same compound?
Its GI50 is 6.88 µM.

What about the CC50 (A-549; read-out: A-549 LC50, SRB assay, 48 hours exposure) of the same compound?
The CC50 was 21.5 µM.

What about the GI50 (A-549; read-out: GI50 A-549, SRB assay, 48 hours exposure) of the same compound?
The GI50 was 0.706 µM.

And the CC50 (A-549; read-out: LC50 A-549, SRB assay, 48 hours exposure)?
Its CC50 is 16.5 µM.

And the “A-549 TGI” value (A-549; SRB assay, 48 hours exposure)?
The value was 1.22E−05.

And the “TGI A-549” value (A-549; SRB assay, 48 hours exposure)?
Its value is 2.93E−06.

What about the GI50 (LNCaP; read-out: GI50 LN-caP, SRB assay, 48 hours exposure) of the same compound?
The GI50 was 0.703 µM.

What about the CC50 (LNCaP; read-out: LC50 LN-caP, SRB assay, 48 hours exposure) of the same compound?
The CC50 was 2.28 µM.

And the GI50 (LNCaP; read-out: LN-caP GI50, SRB assay, 48 hours exposure)?
Its GI50 is 4.51 µM.

What about the CC50 (LNCaP; read-out: LN-caP LC50, SRB assay, 48 hours exposure) of the same compound?
The CC50 was 17.5 µM.

What about the “LN-caP TGI” value (LNCaP; SRB assay, 48 hours exposure) of the same compound?
The value was 8.89E−06.

What about the “TGI LN-caP” value (LNCaP; SRB assay, 48 hours exposure) of the same compound?
Its value is 1.27E−06.

And the GI50 (K-562; read-out: GI50 K-562, SRB assay, 48 hours exposure)?
Its GI50 is 2.8 µM.

What about the GI50 (K-562; read-out: K-562 GI50, SRB assay, 48 hours exposure) of the same compound?
Its GI50 is 6.29 µM.

What about the CC50 (K-562; read-out: K-562 LC50, SRB assay, 48 hours exposure) of the same compound?
The CC50 was 18.1 µM.

What about the CC50 (K-562; read-out: LC50 K-562, SRB assay, 48 hours exposure) of the same compound?
Its CC50 is 23.4 µM.

And the “K-562 TGI” value (K-562; SRB assay, 48 hours exposure)?
Its value is 1.07E−05.

And the “TGI K-562” value (K-562; SRB assay, 48 hours exposure)?
Its value is 8.10E−06.

And the GI50 (HeLa; Homo sapiens, HeLa, 48 h, read-out: HELA GI50, SRB assay, 48 hours exposure)?
Its GI50 is 0.00197 µM.

And the “HELA TGI” value (HeLa; SRB assay, 48 hours exposure)?
Its value is 6.91E−09.

And the CC50 at 48 h [1]?
Its CC50 at 48 h is 8.28 µM.

And the GI50 (HMEC1; Homo sapiens, HMEC-1, 48 h, read-out: GI50 H-MEC-1, SRB assay, 48 hours exposure)?
Its GI50 is 0.446 µM.

What about the “TGI H-MEC-1” value (HMEC1; SRB assay, 48 hours exposure, in M (unit assumed)) of the same compound?
Its value is 1.22E−06.

What about the GI50 (LoVo-Dox; read-out: GI50 LOVO-DOX, SRB assay, 48 hours exposure) of the same compound?
Its GI50 is 1.79 µM.

And the CC50 (LoVo-Dox; read-out: LC50 LOVO-DOX, SRB assay, 48 hours exposure)?
The CC50 was 25.5 µM.

And the GI50 (LoVo-Dox; read-out: LOVO-DOX GI50, SRB assay, 48 hours exposure)?
Its GI50 is 6.09 µM.

And the CC50 (LoVo-Dox; read-out: LOVO-DOX LC50, SRB assay, 48 hours exposure)?
Its CC50 is 19 µM.

And the “LOVO-DOX TGI” value (LoVo-Dox; SRB assay, 48 hours exposure)?
Its value is 1.08E−06.

And the “TGI LOVO-DOX” value (LoVo-Dox; SRB assay, 48 hours exposure)?
Its value is 1.10E−05.

What about the GI50 (HeLa-APL; Homo sapiens, 48 h, read-out: HELA-APL GI50, SRB assay, 48 hours exposure) of the same compound?
The GI50 was 0.00177 µM.

What about the CC50 (HeLa-APL; Homo sapiens, 48 h, read-out: HELA-APL LC50, SRB assay, 48 hours exposure) of the same compound?
Its CC50 is 0.227 µM.

And the “HELA-APL TGI” value (HeLa-APL; SRB assay, 48 hours exposure)?
Its value is 8.64E−09.

What about the GI50 (DU-145; read-out: DU-145 GI50, SRB assay, 48 hours exposure) of the same compound?
The GI50 was 4.48 µM.

And the CC50 (DU-145; read-out: DU-145 LC50, SRB assay, 48 hours exposure)?
The CC50 was 18 µM.

What about the GI50 (DU-145; read-out: GI50 DU-145, SRB assay, 48 hours exposure) of the same compound?
The GI50 was 0.581 µM.

What about the CC50 (DU-145; read-out: LC50 DU-145, SRB assay, 48 hours exposure) of the same compound?
Its CC50 is 14.9 µM.

What about the “DU-145 TGI” value (DU-145; SRB assay, 48 hours exposure) of the same compound?
Its value is 8.99E−06.

And the “TGI DU-145” value (DU-145; SRB assay, 48 hours exposure)?
The value was 2.10E−06.

What about the GI50 (LoVo; read-out: GI50 LOVO, SRB assay, 48 hours exposure) of the same compound?
The GI50 was 0.415 µM.

What about the CC50 (LoVo; read-out: LC50 LOVO, SRB assay, 48 hours exposure) of the same compound?
Its CC50 is 13.4 µM.

What about the GI50 (LoVo; read-out: LOVO GI50, SRB assay, 48 hours exposure) of the same compound?
The GI50 was 0.525 µM.

And the CC50 (LoVo; read-out: LOVO LC50, SRB assay, 48 hours exposure)?
Its CC50 is 2.03 µM.

And the “LOVO TGI” value (LoVo; SRB assay, 48 hours exposure)?
Its value is 1.03E−06.

And the “TGI LOVO” value (LoVo; SRB assay, 48 hours exposure)?
The value was 1.87E−06.

What about the GI50 (SK-OV-3; Homo sapiens, SK-OV-3, 48 h, read-out: GI50 SKOV-3, SRB assay, 48 hours exposure) of the same compound?
The GI50 was 0.28 µM.

What about the CC50 (SK-OV-3; Homo sapiens, SK-OV-3, 48 h, read-out: LC50 SKOV-3, SRB assay, 48 hours exposure) of the same compound?
Its CC50 is 9.35 µM.

And the “TGI SKOV-3” value (SK-OV-3; SRB assay, 48 hours exposure)?
The value was 1.13E−06.

What about the GI50 (HT-29; read-out: GI50 HT-29, SRB assay, 48 hours exposure) of the same compound?
Its GI50 is 0.935 µM.

And the GI50 (HT-29; read-out: HT-29 GI50, SRB assay, 48 hours exposure)?
Its GI50 is 1.05 µM.

And the CC50 (HT-29; read-out: HT-29 LC50, SRB assay, 48 hours exposure)?
The CC50 was 24.6 µM.

And the CC50 (HT-29; read-out: LC50 HT-29, SRB assay, 48 hours exposure)?
The CC50 was 25.5 µM.

And the “HT-29 TGI” value (HT-29; SRB assay, 48 hours exposure)?
Its value is 3.47E−06.

What about the “TGI HT-29” value (HT-29; SRB assay, 48 hours exposure) of the same compound?
Its value is 3.36E−06.
